# Measured values as given in the kinase profiling compilation of Christmann-Franck et al. (2016).
# Values joined by “and” are separate entries in the source; they are usually repeats but may differ in a detail not shown here. Identical values can stand only once.
# Columns and labels:
# Experiment in all cases: radiometric filter-binding kinase assay, Kinase HotSpot
# Settings in all cases: compound 0.5 µM; ATP 10 µM
# ABL1 (human) = ABL1 (human) (UniProt P00519)
# ACVRL1 (human) = ACVRL1 (human) (UniProt P37023)
# BRSK1 (human) = BRSK1 (human) (UniProt Q8TDC3)
# BRSK2 (human) = BRSK2 (human) (UniProt Q8IWQ3)
# CAMK4 (human) = CAMK4 (human) (UniProt Q16566)
# CDK1 CCNA2 (human) = CDK1 CCNA2 (human) (UniProt P06493+P20248)
# CDK3 CCNE1 (human) = CDK3 CCNE1 (human) (UniProt Q00526+P24864)
# Sequence of CDK3 CCNE1 (human) (P24864 whole entry, looked up): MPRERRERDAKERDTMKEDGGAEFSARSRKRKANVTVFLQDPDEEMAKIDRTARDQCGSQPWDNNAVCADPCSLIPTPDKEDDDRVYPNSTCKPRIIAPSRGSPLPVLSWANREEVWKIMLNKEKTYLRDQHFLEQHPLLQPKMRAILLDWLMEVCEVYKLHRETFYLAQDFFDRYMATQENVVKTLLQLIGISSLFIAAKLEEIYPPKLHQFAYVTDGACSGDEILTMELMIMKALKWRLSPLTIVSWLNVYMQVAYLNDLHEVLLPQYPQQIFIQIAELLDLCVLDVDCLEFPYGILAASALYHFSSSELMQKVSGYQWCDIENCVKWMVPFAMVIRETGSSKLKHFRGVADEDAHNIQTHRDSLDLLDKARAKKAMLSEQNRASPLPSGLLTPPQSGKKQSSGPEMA
# Sequence of CDK3 CCNE1 (human) (Q00526 whole entry, looked up): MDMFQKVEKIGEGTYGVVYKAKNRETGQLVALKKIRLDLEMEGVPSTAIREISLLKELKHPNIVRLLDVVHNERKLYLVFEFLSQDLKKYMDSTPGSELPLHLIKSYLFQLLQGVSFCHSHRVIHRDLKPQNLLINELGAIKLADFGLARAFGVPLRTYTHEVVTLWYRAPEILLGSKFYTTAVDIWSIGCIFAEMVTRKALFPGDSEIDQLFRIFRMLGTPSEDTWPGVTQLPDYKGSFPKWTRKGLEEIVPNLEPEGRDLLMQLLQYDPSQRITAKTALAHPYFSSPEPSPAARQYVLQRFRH
# CDK6 CCND3 (human) = CDK6 CCND3 (human) (UniProt P30281+Q00534)
# CDK9 CCNT1 (human) = CDK9 CCNT1 (human) (UniProt P50750+O60563)
# CLK1 (human) = CLK1 (human) (UniProt P49759)
# CLK3 (human) = CLK3 (human) (UniProt P49761)
# CLK4 (human) = CLK4 (human) (UniProt Q9HAZ1)
# Sequence of CLK4 (human) (Q9HAZ1 whole entry, looked up): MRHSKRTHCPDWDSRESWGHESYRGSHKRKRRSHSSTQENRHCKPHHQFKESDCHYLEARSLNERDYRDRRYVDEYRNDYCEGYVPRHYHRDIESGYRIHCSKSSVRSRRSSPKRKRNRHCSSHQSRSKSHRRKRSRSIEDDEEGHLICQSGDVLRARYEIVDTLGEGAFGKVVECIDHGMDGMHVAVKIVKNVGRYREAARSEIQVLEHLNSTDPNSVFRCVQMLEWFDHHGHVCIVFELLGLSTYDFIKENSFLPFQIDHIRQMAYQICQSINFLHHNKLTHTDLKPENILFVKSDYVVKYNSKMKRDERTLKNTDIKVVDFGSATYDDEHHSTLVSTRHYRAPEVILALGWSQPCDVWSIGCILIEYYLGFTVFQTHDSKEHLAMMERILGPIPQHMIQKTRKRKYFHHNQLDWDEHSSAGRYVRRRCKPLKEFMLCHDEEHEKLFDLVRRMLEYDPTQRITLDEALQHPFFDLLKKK
# CSK (human) = CSK (human) (UniProt P41240)
# Sequence of CSK (human) (P41240 whole entry, looked up): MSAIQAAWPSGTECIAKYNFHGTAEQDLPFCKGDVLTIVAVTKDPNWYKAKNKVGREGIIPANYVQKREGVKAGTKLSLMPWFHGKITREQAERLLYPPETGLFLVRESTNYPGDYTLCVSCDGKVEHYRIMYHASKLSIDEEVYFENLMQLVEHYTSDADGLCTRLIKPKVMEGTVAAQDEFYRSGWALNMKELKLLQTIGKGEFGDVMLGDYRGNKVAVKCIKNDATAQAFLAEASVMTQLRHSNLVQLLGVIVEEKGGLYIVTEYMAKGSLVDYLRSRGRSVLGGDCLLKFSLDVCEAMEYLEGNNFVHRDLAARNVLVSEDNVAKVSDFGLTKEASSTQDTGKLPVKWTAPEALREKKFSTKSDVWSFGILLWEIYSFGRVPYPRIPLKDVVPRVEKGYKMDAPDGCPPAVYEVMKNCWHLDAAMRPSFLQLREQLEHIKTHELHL
# CSNK1A1 (human) = CSNK1A1 (human) (UniProt P48729)
# Sequence of CSNK1A1 (human) (P48729 whole entry, looked up): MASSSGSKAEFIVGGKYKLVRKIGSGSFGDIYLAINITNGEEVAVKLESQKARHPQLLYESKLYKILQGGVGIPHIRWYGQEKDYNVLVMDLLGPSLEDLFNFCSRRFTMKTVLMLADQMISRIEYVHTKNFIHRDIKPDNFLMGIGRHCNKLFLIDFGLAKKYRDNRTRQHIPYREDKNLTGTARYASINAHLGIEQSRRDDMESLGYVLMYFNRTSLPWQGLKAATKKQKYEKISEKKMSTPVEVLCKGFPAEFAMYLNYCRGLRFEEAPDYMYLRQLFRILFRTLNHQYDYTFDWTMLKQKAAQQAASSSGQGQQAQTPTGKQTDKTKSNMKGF
# CSNK1G3 (human) = CSNK1G3 (human) (UniProt Q9Y6M4)
# Sequence of CSNK1G3 (human) (Q9Y6M4 whole entry, looked up): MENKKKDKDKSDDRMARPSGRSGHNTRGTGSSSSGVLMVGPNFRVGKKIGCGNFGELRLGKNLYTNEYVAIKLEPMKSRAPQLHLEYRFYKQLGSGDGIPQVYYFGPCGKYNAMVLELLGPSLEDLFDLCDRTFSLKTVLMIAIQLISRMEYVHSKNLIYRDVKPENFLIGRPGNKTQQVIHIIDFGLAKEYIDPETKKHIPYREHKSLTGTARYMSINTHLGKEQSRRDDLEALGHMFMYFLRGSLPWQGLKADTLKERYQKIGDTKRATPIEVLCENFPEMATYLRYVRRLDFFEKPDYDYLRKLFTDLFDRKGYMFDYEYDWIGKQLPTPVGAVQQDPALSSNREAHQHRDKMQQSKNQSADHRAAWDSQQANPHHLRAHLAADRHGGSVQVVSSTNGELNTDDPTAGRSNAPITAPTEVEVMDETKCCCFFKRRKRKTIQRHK
# DAPK3 (human) = DAPK3 (human) (UniProt O43293)
# DYRK1A (human) = DYRK1A (human) (UniProt Q13627)
# EGFR (human) = EGFR (human) (UniProt P00533)
# EPHA6 (human) = EPHA6 (human) (UniProt Q9UF33)
# EPHB3 (human) = EPHB3 (human) (UniProt P54753)
# Sequence of EPHB3 (human) (P54753 whole entry, looked up): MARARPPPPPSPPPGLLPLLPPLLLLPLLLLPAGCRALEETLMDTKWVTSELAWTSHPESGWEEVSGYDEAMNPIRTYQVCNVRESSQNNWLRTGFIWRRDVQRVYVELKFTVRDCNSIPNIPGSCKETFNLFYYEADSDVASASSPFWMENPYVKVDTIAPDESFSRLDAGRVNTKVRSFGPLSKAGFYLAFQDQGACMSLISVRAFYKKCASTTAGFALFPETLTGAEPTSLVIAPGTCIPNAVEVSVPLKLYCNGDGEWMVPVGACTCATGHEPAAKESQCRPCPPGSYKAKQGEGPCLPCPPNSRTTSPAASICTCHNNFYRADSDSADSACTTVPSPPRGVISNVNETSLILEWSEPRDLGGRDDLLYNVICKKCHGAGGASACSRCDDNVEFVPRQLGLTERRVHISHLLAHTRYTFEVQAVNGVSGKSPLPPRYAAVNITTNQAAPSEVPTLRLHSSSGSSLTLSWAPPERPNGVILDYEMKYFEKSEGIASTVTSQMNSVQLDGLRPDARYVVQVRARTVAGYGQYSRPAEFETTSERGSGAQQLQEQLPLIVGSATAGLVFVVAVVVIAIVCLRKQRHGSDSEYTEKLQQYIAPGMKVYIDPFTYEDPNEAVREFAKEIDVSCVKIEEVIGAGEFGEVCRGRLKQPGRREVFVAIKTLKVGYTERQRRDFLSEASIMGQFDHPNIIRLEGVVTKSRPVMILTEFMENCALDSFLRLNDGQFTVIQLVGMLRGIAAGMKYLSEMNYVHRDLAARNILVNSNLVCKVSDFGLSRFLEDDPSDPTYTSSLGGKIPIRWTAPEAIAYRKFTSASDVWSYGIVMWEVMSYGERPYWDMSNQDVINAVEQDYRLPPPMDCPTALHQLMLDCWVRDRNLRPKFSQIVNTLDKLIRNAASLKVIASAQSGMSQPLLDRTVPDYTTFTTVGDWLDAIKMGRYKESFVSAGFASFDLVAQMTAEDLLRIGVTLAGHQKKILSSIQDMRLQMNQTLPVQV
# GRK7 (human) = GRK7 (human) (UniProt Q8WTQ7)
# IRAK4 (human) = IRAK4 (human) (UniProt Q9NWZ3)
# KDR (human) = KDR (human) (UniProt P35968)
# MAP3K14 (human) = MAP3K14 (human) (UniProt Q99558)
# MAP3K5 (human) = MAP3K5 (human) (UniProt Q99683)
# MAP4K5 (human) = MAP4K5 (human) (UniProt Q9Y4K4)
# MARK2 (human) = MARK2 (human) (UniProt Q7KZI7)
# MARK3 (human) = MARK3 (human) (UniProt P27448)
# MKNK2 (human) = MKNK2 (human) (UniProt Q9HBH9)
# NEK6 (human) = NEK6 (human) (UniProt Q9HC98)
# Sequence of NEK6 (human) (Q9HC98 whole entry, looked up): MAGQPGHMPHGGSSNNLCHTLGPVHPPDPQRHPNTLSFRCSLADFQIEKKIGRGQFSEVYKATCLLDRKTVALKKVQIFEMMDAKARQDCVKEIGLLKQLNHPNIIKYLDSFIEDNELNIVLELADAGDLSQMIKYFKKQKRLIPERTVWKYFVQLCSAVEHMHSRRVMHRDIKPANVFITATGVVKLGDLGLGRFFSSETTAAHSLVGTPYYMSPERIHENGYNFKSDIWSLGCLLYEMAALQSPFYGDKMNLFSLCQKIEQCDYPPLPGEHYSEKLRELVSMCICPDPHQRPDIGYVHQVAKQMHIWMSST
# PIM1 (human) = PIM1 (human) (UniProt P11309)
# PRKCI (human) = PRKCI (human) (UniProt P41743)
# PRKG1 (human) = PRKG1 (human) (UniProt Q13976)
# Sequence of PRKG1 (human) (Q13976 whole entry, looked up): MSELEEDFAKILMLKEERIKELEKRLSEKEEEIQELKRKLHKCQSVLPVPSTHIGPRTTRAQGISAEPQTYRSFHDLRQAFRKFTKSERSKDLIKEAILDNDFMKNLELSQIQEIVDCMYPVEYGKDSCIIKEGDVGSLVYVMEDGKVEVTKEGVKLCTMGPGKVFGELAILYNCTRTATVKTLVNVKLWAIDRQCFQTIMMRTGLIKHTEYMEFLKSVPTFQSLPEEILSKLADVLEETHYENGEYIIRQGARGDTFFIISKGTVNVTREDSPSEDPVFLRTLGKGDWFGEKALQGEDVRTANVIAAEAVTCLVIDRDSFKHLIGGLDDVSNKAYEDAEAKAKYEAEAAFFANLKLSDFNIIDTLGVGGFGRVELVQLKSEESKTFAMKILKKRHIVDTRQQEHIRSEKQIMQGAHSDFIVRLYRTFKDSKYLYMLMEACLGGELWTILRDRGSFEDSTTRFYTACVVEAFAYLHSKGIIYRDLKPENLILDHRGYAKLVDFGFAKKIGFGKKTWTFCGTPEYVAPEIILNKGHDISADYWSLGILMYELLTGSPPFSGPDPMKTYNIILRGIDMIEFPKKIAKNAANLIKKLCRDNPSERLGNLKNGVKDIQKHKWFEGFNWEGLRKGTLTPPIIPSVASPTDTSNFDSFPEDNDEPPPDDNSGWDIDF
# PRKX (human) = PRKX (human) (UniProt P51817)
# RAF1 (human) = RAF1 (human) (UniProt P04049)
# RET (human) = RET (human) (UniProt P07949)
# STK24 (human) = STK24 (human) (UniProt Q9Y6E0)
# STK25 (human) = STK25 (human) (UniProt O00506)
# STK3 (human) = STK3 (human) (UniProt Q13188)
# TGFBR2 (human) = TGFBR2 (human) (UniProt P37173)
# Sequence of TGFBR2 (human) (P37173 whole entry, looked up): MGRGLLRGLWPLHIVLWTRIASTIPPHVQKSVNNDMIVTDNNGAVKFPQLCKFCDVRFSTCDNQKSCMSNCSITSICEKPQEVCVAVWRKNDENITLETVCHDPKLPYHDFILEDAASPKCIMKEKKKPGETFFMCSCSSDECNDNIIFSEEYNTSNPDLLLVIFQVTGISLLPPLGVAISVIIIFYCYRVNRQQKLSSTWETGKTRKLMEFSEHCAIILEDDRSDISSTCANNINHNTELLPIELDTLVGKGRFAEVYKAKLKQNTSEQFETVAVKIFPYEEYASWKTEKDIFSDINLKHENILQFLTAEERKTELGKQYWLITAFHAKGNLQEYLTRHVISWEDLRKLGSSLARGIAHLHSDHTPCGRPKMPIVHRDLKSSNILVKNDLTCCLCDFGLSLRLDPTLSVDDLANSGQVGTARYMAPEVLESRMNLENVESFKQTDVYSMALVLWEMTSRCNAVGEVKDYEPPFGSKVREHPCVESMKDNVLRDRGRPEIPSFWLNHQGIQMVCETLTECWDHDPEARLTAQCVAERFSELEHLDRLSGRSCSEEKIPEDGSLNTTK
# TSSK1B (human) = TSSK1B (human) (UniProt Q9BXA7)
# VRK1 (human) = VRK1 (human) (UniProt Q99986)
structure (smiles),measurement,setting,value
O=C1NC(=O)C(c2cn(CCCn3ccnc3)c3ccccc23)=C1Nc1ccccc1,residual activity,ABL1 (human),96.1%
same,residual activity,ACVRL1 (human),95.9%
same,residual activity,BRSK1 (human),95.3%
same,residual activity,BRSK2 (human),93.6%
same,residual activity,CAMK4 (human),103%
same,residual activity,CDK1 CCNA2 (human),88.9%
same,residual activity,CDK3 CCNE1 (human),90.9%
same,residual activity,CDK6 CCND3 (human),104%
same,residual activity,CDK9 CCNT1 (human),51.3%
same,residual activity,CLK1 (human),43.3%
same,residual activity,CLK3 (human),93.9%
same,residual activity,CLK4 (human),38.9%
same,residual activity,CSK (human),110%
same,residual activity,CSNK1A1 (human),102%
same,residual activity,CSNK1G3 (human),110%
same,residual activity,DAPK3 (human),104%
same,residual activity,DYRK1A (human),30.8%
same,residual activity,EGFR (human),95.1%
same,residual activity,EPHA6 (human),106%
same,residual activity,EPHB3 (human),99.7%
same,residual activity,GRK7 (human),86.3%
same,residual activity,IRAK4 (human),89.5%
same,residual activity,KDR (human),90.2%
same,residual activity,MAP3K14 (human),96.1%
same,residual activity,MAP3K5 (human),105%
same,residual activity,MAP4K5 (human),66.5%
same,residual activity,MARK2 (human),97.1%
same,residual activity,MARK3 (human),92.1%
same,residual activity,MKNK2 (human),87.2%
same,residual activity,NEK6 (human),93.6%
same,residual activity,PIM1 (human),79.1%
same,residual activity,PRKCI (human),90.7%
same,residual activity,PRKG1 (human),88.8% and 89.3%
same,residual activity,PRKX (human),95.5%
same,residual activity,RAF1 (human),105%
same,residual activity,RET (human),95.6%
same,residual activity,STK24 (human),51.7%
same,residual activity,STK25 (human),63.1%
same,residual activity,STK3 (human),52%
same,residual activity,TGFBR2 (human),134%
same,residual activity,TSSK1B (human),102%
same,residual activity,VRK1 (human),98.7%
c1ccc(-c2n[nH]cc2-c2ccnc3ccccc23)nc1,residual activity,ABL1 (human),77.1%
same,residual activity,ACVRL1 (human),102%
same,residual activity,BRSK1 (human),99%
same,residual activity,BRSK2 (human),101%
same,residual activity,CAMK4 (human),97.5%
same,residual activity,CDK1 CCNA2 (human),82.7%
same,residual activity,CDK3 CCNE1 (human),94.2%
same,residual activity,CDK6 CCND3 (human),98.2%
same,residual activity,CDK9 CCNT1 (human),80%
same,residual activity,CLK1 (human),106%
same,residual activity,CLK3 (human),105%
same,residual activity,CLK4 (human),101%
same,residual activity,CSK (human),102%
same,residual activity,CSNK1A1 (human),74.6%
same,residual activity,CSNK1G3 (human),96%
same,residual activity,DAPK3 (human),101%
same,residual activity,DYRK1A (human),90.9%
same,residual activity,EGFR (human),81.8%
same,residual activity,EPHA6 (human),98.8%
same,residual activity,EPHB3 (human),97.1%
same,residual activity,GRK7 (human),102%
same,residual activity,IRAK4 (human),87.7%
same,residual activity,KDR (human),103%
same,residual activity,MAP3K14 (human),116%
same,residual activity,MAP3K5 (human),105%
same,residual activity,MAP4K5 (human),87.4%
same,residual activity,MARK2 (human),102%
same,residual activity,MARK3 (human),87.5%
same,residual activity,MKNK2 (human),81.9%
same,residual activity,NEK6 (human),106%
same,residual activity,PIM1 (human),107%
same,residual activity,PRKCI (human),99%
same,residual activity,PRKG1 (human),86% and 92.7%
same,residual activity,PRKX (human),102%
same,residual activity,RAF1 (human),89.5%
same,residual activity,RET (human),93.8%
same,residual activity,STK24 (human),96.8%
same,residual activity,STK25 (human),96.9%
same,residual activity,STK3 (human),102%
same,residual activity,TGFBR2 (human),109%
same,residual activity,TSSK1B (human),104%
same,residual activity,VRK1 (human),92.6%
O=C1Nc2ccc(Cl)cc2/C1=C/c1cc(Cl)c(O)c(Cl)c1,residual activity,ABL1 (human),84%
same,residual activity,ACVRL1 (human),96.4%
same,residual activity,BRSK1 (human),81.3%
same,residual activity,BRSK2 (human),77.2%
same,residual activity,CAMK4 (human),96.8%
same,residual activity,CDK1 CCNA2 (human),91.9%
same,residual activity,CDK3 CCNE1 (human),85.4%
same,residual activity,CDK6 CCND3 (human),94.1%
same,residual activity,CDK9 CCNT1 (human),95.2%
same,residual activity,CLK1 (human),85%
same,residual activity,CLK3 (human),90.9%
same,residual activity,CLK4 (human),60.7%
same,residual activity,CSK (human),85%
same,residual activity,CSNK1A1 (human),92.6%
same,residual activity,CSNK1G3 (human),93%
same,residual activity,DAPK3 (human),82.3%
same,residual activity,DYRK1A (human),95.6%
same,residual activity,EGFR (human),93.5%
same,residual activity,EPHA6 (human),72.8%
same,residual activity,EPHB3 (human),91%
same,residual activity,GRK7 (human),97.3%
same,residual activity,IRAK4 (human),101%
same,residual activity,KDR (human),86.1%
same,residual activity,MAP3K14 (human),111%
same,residual activity,MAP3K5 (human),106%
same,residual activity,MAP4K5 (human),75.9%
same,residual activity,MARK2 (human),79.7%
same,residual activity,MARK3 (human),81.1%
same,residual activity,MKNK2 (human),88.7%
same,residual activity,NEK6 (human),104%
same,residual activity,PIM1 (human),19.4%
same,residual activity,PRKCI (human),94.1%
same,residual activity,PRKG1 (human),102% and 96.8%
same,residual activity,PRKX (human),92.1%
same,residual activity,RAF1 (human),6.93%
same,residual activity,RET (human),80.4%
same,residual activity,STK24 (human),104%
same,residual activity,STK25 (human),94%
same,residual activity,STK3 (human),31.6%
same,residual activity,TGFBR2 (human),94.9%
same,residual activity,TSSK1B (human),88.2%
same,residual activity,VRK1 (human),80.6%
CCOC(=O)c1c(C)[nH]c(/C=C2\C(=O)Nc3ccccc32)c1C,residual activity,ABL1 (human),95.4%
same,residual activity,ACVRL1 (human),94.8%
same,residual activity,BRSK1 (human),92.6%
same,residual activity,BRSK2 (human),98.7%
same,residual activity,CAMK4 (human),97.7%
same,residual activity,CDK1 CCNA2 (human),96.3%
same,residual activity,CDK3 CCNE1 (human),94%
same,residual activity,CDK6 CCND3 (human),84.7%
same,residual activity,CDK9 CCNT1 (human),94.7%
same,residual activity,CLK1 (human),98.2%
same,residual activity,CLK3 (human),100%
same,residual activity,CLK4 (human),94.3%
same,residual activity,CSK (human),104%
same,residual activity,CSNK1A1 (human),98.6%
same,residual activity,CSNK1G3 (human),97.9%
same,residual activity,DAPK3 (human),85.1%
same,residual activity,DYRK1A (human),95.7%
same,residual activity,EGFR (human),92.2%
same,residual activity,EPHA6 (human),80%
same,residual activity,EPHB3 (human),94.4%
same,residual activity,GRK7 (human),86.3%
same,residual activity,IRAK4 (human),96.8%
same,residual activity,KDR (human),93.2%
same,residual activity,MAP3K14 (human),118%
same,residual activity,MAP4K5 (human),84.3%
same,residual activity,MARK2 (human),87.6%
same,residual activity,MARK3 (human),99.8%
same,residual activity,MKNK2 (human),87.4%
same,residual activity,NEK6 (human),98.1%
same,residual activity,PIM1 (human),95.8%
same,residual activity,PRKCI (human),92.9%
same,residual activity,PRKG1 (human),78.3% and 92.8%
same,residual activity,PRKX (human),94.8%
same,residual activity,RAF1 (human),89.6%
same,residual activity,RET (human),40.8%
same,residual activity,STK24 (human),82.5%
same,residual activity,STK25 (human),98.5%
same,residual activity,STK3 (human),73.7%
same,residual activity,TGFBR2 (human),101%
same,residual activity,TSSK1B (human),91.2%
same,residual activity,VRK1 (human),104%
